# From patent publication US8952024B2, “Herbicidal pyrimidone derivatives” (E I du Pont de Nemours and Company, priority 2009, dated 2015)
# Tests used:
# Test in all cases: Test B pre-/postemergence plant response
# Format in all cases: in vivo
# [1] = test system: kochia (Kochia scoparia)
# Summary of the method: (§1)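 Steps: sow seed in loam–sand soil and spray preemergence, or grow plants in peat-based medium to 1–4 leaves (2–18 cm) and spray postemergence; formulation is non-phytotoxic solvent plus surfactant; hold in greenhouse 13–15 days; score visually vs controls, 0 = no effect, 100 = complete control.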
# [2] = test system: woolly cupgrass (Eriochloa villosa)
# Summary of the method: as §1
# [3] = test system: ragweed (common ragweed, Ambrosia elatior)
# Summary of the method: as §1
# [4] = test system: corn (Zea mays)
# Summary of the method: as §1
# [5] = test system: yellow nutsedge (Cyperus esculentus)
# Summary of the method: as §1
# [6] = test system: velvetleaf (Abutilon theophrasti)
# Summary of the method: as §1
# [7] = test system: Italian ryegrass (Lolium multiflorum)
# Summary of the method: as §1
# [8] = test system: lambsquarters (Chenopodium album)
# Summary of the method: as §1
# [9] = test system: Surinam grass (Brachiaria decumbens)
# Summary of the method: as §1
# [10] = test system: goosegrass (Eleusine indica)
# Summary of the method: as §1
# [11] = test system: large crabgrass (Digitaria sanguinalis)
# Summary of the method: as §1
# [12] = test system: wild oat (Avena fatua)
# Summary of the method: as §1
# [13] = test system: johnsongrass (Sorghum halepense)
# Summary of the method: as §1
# [14] = test system: wheat (Triticum aestivum)
# Summary of the method: as §1
# [15] = test system: downy bromegrass (Bromus tectorum)
# Summary of the method: as §1
# [16] = test system: soybean (Glycine max)
# Summary of the method: as §1
# [17] = test system: pigweed (Amaranthus retroflexus)
# Summary of the method: as §1
# [18] = test system: blackgrass (Alopecurus myosuroides)
# Summary of the method: as §1
# [19] = 31 g ai/ha, postemergence, scale 0 to 100, 0 is no effect, 100 is complete control
# [20] = Postemergence, 62 g ai/ha, scale 0 (no effect) to 100 (complete control), 13 to 15 days
# [21] = Postemergence, 125 g ai/ha, visual rating after 13 to 15 days, scale 0 (no effect) to 100 (complete control)
# [22] = Postemergence, 250 g ai/ha, scale 0 to 100 (0 no effect, 100 complete control)
# [23] = 250 g ai/ha, Preemergence, 0 to 100 scale
# [24] = Preemergence, 31 g ai/ha, scale 0 to 100 (0 no effect, 100 complete control)
# [25] = Preemergence, 62 g ai/ha, scale 0 to 100, 0 no effect, 100 complete control
# [26] = Preemergence, 125 g ai/ha, scale 0 to 100, 0 no effect, 100 complete control
structure (smiles),measurement,setting,value
Cc1ccc(Cl)cc1-n1c(-c2ccccc2)ncc(C(=O)C2=C(O)CCCC2=O)c1=O [Compound 52],"Plant response rating, Kochia",[1]; [19],20
same,"Plant response rating, Kochia",[1]; [20],25
same,"Plant response rating, Kochia",[1]; [21],55
same,"Plant response rating, Kochia",[1]; [22],65
same,"Plant response rating, Cupgrass, Woolly",[2]; [19],70
same,"Plant response rating, Cupgrass, Woolly",[2]; [23],80
same,"Plant response rating, Cupgrass, Woolly",[2]; [20],75
same,"Plant response rating, Cupgrass, Woolly",[2]; [21],85
same,"Plant response rating, Cupgrass, Woolly",[2]; [22],95
same,"Plant response rating, Cupgrass, Woolly",[2]; [24],0
same,"Plant response rating, Cupgrass, Woolly",[2]; [25],10
same,"Plant response rating, Cupgrass, Woolly",[2]; [26],65
same,"Plant response rating, Ragweed",[3]; [19],75
same,"Plant response rating, Ragweed",[3]; [23],95
same,"Plant response rating, Ragweed",[3]; [20],80
same,"Plant response rating, Ragweed",[3]; [21],80
same,"Plant response rating, Ragweed",[3]; [22],85
same,"Plant response rating, Ragweed",[3]; [24],80
same,"Plant response rating, Ragweed",[3]; [25],80
same,"Plant response rating, Ragweed",[3]; [26],85
same,"Plant response rating, Corn",[4]; [19],30
same,"Plant response rating, Corn",[4]; [23],0
same,"Plant response rating, Corn",[4]; [20],45
same,"Plant response rating, Corn",[4]; [21],65
same,"Plant response rating, Corn",[4]; [22],80
same,"Plant response rating, Corn",[4]; [24],0
same,"Plant response rating, Corn",[4]; [25],0
same,"Plant response rating, Corn",[4]; [26],0
same,"Plant response rating, Nutsedge, Yellow",[5]; [19],20
same,"Plant response rating, Nutsedge, Yellow",[5]; [23],90
same,"Plant response rating, Nutsedge, Yellow",[5]; [20],25
same,"Plant response rating, Nutsedge, Yellow",[5]; [21],45
same,"Plant response rating, Nutsedge, Yellow",[5]; [22],65
same,"Plant response rating, Nutsedge, Yellow",[5]; [24],0
same,"Plant response rating, Nutsedge, Yellow",[5]; [25],25
same,"Plant response rating, Nutsedge, Yellow",[5]; [26],80
same,"Plant response rating, Velvetleaf",[6]; [19],95
same,"Plant response rating, Velvetleaf",[6]; [23],100
same,"Plant response rating, Velvetleaf",[6]; [20],98
same,"Plant response rating, Velvetleaf",[6]; [21],98
same,"Plant response rating, Velvetleaf",[6]; [22],100
same,"Plant response rating, Velvetleaf",[6]; [24],80
same,"Plant response rating, Velvetleaf",[6]; [25],98
same,"Plant response rating, Velvetleaf",[6]; [26],98
same,"Plant response rating, Ryegrass, Italian",[7]; [19],40
same,"Plant response rating, Ryegrass, Italian",[7]; [23],0
same,"Plant response rating, Ryegrass, Italian",[7]; [20],45
same,"Plant response rating, Ryegrass, Italian",[7]; [21],55
same,"Plant response rating, Ryegrass, Italian",[7]; [22],60
same,"Plant response rating, Ryegrass, Italian",[7]; [24],0
same,"Plant response rating, Ryegrass, Italian",[7]; [25],0
same,"Plant response rating, Ryegrass, Italian",[7]; [26],0
same,"Plant response rating, Lambsquarters",[8]; [19],85
same,"Plant response rating, Lambsquarters",[8]; [23],100
same,"Plant response rating, Lambsquarters",[8]; [20],85
same,"Plant response rating, Lambsquarters",[8]; [21],90
same,"Plant response rating, Lambsquarters",[8]; [22],95
same,"Plant response rating, Lambsquarters",[8]; [24],98
same,"Plant response rating, Lambsquarters",[8]; [25],100
same,"Plant response rating, Lambsquarters",[8]; [26],100
same,"Plant response rating, Surinam Grass",[9]; [19],75
same,"Plant response rating, Surinam Grass",[9]; [23],98
same,"Plant response rating, Surinam Grass",[9]; [20],85
same,"Plant response rating, Surinam Grass",[9]; [21],90
same,"Plant response rating, Surinam Grass",[9]; [22],98
same,"Plant response rating, Surinam Grass",[9]; [24],10
same,"Plant response rating, Surinam Grass",[9]; [25],25
same,"Plant response rating, Surinam Grass",[9]; [26],95
same,"Plant response rating, Goosegrass",[10]; [19],75
same,"Plant response rating, Goosegrass",[10]; [23],100
same,"Plant response rating, Goosegrass",[10]; [20],80
same,"Plant response rating, Goosegrass",[10]; [21],85
same,"Plant response rating, Goosegrass",[10]; [22],85
same,"Plant response rating, Goosegrass",[10]; [24],98
same,"Plant response rating, Goosegrass",[10]; [25],100
same,"Plant response rating, Goosegrass",[10]; [26],100
same,"Plant response rating, Crabgrass, Large",[11]; [19],85
same,"Plant response rating, Crabgrass, Large",[11]; [23],100
same,"Plant response rating, Crabgrass, Large",[11]; [20],90
same,"Plant response rating, Crabgrass, Large",[11]; [21],90
same,"Plant response rating, Crabgrass, Large",[11]; [22],98
same,"Plant response rating, Crabgrass, Large",[11]; [24],60
same,"Plant response rating, Crabgrass, Large",[11]; [25],98
same,"Plant response rating, Crabgrass, Large",[11]; [26],100
same,"Plant response rating, Oat, Wild",[12]; [19],90
same,"Plant response rating, Oat, Wild",[12]; [23],60
same,"Plant response rating, Oat, Wild",[12]; [20],90
same,"Plant response rating, Oat, Wild",[12]; [21],95
same,"Plant response rating, Oat, Wild",[12]; [22],95
same,"Plant response rating, Oat, Wild",[12]; [24],0
same,"Plant response rating, Oat, Wild",[12]; [25],5
same,"Plant response rating, Oat, Wild",[12]; [26],5
same,"Plant response rating, Johnsongrass",[13]; [19],75
same,"Plant response rating, Johnsongrass",[13]; [23],95
same,"Plant response rating, Johnsongrass",[13]; [20],85
same,"Plant response rating, Johnsongrass",[13]; [21],90
same,"Plant response rating, Johnsongrass",[13]; [22],95
same,"Plant response rating, Johnsongrass",[13]; [24],10
same,"Plant response rating, Johnsongrass",[13]; [25],75
same,"Plant response rating, Johnsongrass",[13]; [26],90
same,"Plant response rating, Wheat",[14]; [19],15
same,"Plant response rating, Wheat",[14]; [23],0
same,"Plant response rating, Wheat",[14]; [20],25
same,"Plant response rating, Wheat",[14]; [21],35
same,"Plant response rating, Wheat",[14]; [22],35
same,"Plant response rating, Wheat",[14]; [24],0
same,"Plant response rating, Wheat",[14]; [25],0
same,"Plant response rating, Wheat",[14]; [26],0
same,"Plant response rating, Bromegrass, Downy",[15]; [19],50
same,"Plant response rating, Bromegrass, Downy",[15]; [23],5
same,"Plant response rating, Bromegrass, Downy",[15]; [20],55
same,"Plant response rating, Bromegrass, Downy",[15]; [21],60
same,"Plant response rating, Bromegrass, Downy",[15]; [22],70
same,"Plant response rating, Bromegrass, Downy",[15]; [24],0
same,"Plant response rating, Bromegrass, Downy",[15]; [25],5
same,"Plant response rating, Bromegrass, Downy",[15]; [26],5
same,"Plant response rating, Soybean",[16]; [19],80
same,"Plant response rating, Soybean",[16]; [23],80
same,"Plant response rating, Soybean",[16]; [20],95
same,"Plant response rating, Soybean",[16]; [21],95
same,"Plant response rating, Soybean",[16]; [22],98
same,"Plant response rating, Soybean",[16]; [24],0
same,"Plant response rating, Soybean",[16]; [25],0
same,"Plant response rating, Soybean",[16]; [26],55
same,"Plant response rating, Pigweed",[17]; [19],85
same,"Plant response rating, Pigweed",[17]; [23],100
same,"Plant response rating, Pigweed",[17]; [20],90
same,"Plant response rating, Pigweed",[17]; [21],95
same,"Plant response rating, Pigweed",[17]; [22],98
same,"Plant response rating, Pigweed",[17]; [24],90
same,"Plant response rating, Pigweed",[17]; [25],100
same,"Plant response rating, Pigweed",[17]; [26],100
same,"Plant response rating, Blackgrass",[18]; [19],5
same,"Plant response rating, Blackgrass",[18]; [23],10
same,"Plant response rating, Blackgrass",[18]; [20],5
same,"Plant response rating, Blackgrass",[18]; [21],25
same,"Plant response rating, Blackgrass",[18]; [22],30
same,"Plant response rating, Blackgrass",[18]; [24],0
same,"Plant response rating, Blackgrass",[18]; [25],0
same,"Plant response rating, Blackgrass",[18]; [26],0
